# Assay results: patent publication US20240166690A1, “MULTI-TARGET CY[…] FOR OPIOID/NEUROPEPTIDE FF RECEPTORS, AND PREPARATION THEREFOR AND APPLICATION THEREOF” (SHANGHAI TIANCI LIFE SCIENCE DEVELOPMENT CO., LTD., priority 2021, published 2024)
# Bridge positions count the residues as written; N and C are the ends. Square brackets hold non-standard residues; d marks the D form. Peptide text beside a SMILES is read from it. NMeF = CN[C@@H](Cc1ccccc1)C(=O)O; Cha = N[C@@H](CC1CCCCC1)C(=O)O; dDap = NC[C@@H](N)C(=O)O; Aib = CC(C)(N)C(=O)O; βAla = NCCC(=O)O
# How the values were obtained:
# [1] = target: T1, Mu-opioid receptor (Homo sapiens, UniProt P35372); assay: cAMP functional experiment, Mu-opioid receptor (forskolin-induced cAMP accumulation); format: cell-based
# T1 construct: expressed in transfected cells; host or cells: HEK293
# T1 sequence (P35372 whole entry): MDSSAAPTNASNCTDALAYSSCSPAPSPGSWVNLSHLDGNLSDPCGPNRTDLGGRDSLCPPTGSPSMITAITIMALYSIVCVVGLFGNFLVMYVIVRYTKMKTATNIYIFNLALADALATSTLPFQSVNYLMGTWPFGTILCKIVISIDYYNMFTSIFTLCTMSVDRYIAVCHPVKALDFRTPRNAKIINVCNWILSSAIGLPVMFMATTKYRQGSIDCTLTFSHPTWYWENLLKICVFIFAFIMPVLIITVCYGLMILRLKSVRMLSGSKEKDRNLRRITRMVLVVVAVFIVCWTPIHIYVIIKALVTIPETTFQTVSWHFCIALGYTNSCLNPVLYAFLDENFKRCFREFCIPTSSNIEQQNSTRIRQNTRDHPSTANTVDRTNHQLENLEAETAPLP
# Description: (§1) The agonistic activity of the cyclopeptide molecule of the present invention against Mu-opioid receptor, Delta-opioid receptor, Kappa-opioid receptor, NPFF1 receptor and NPFF2 receptor was evaluated by detecting the regulation of the cyclopeptide molecule of the present invention on the intracellular accumulation of cyclic adenosine monophosphate (cAMP) induced by Forskolin in HEK293 cells stably expressing these five receptors. The experimental method was: the cells were seeded in 24 well plates with 120000 cells per well, and were cultured for more than 20 hours. At the beginning of the experiment, the culture medium in the culture dish was suck out, and then 500 μL of preheated serum-free medium containing 1 mM of IBMX was added, the mixture was incubated at 37° C. for 10 minutes. Then each 10 μL of the drug to be tested and 10 μM of forskolin (final concentration) were added to each well. The mixture was incubated at 37° C. for 30 minutes. After incubation, all the liquid was suck out from the culture dish, 500 μL of 0.2 N hydrochloric acid was added to each well, the mixture was incubated at room temperature for 30 minutes to promote cell lysis. After lysis was complete, NaOH was added to neutralize the hydrochloric acid solution used for lysis. Then all the liquid was suck out from the culture dish into centrifuge tubes, the liquid was centrifuged at 12000 rpm for 2 minutes. 50 μL was taken to a clean centrifuge tube, 100 μL of 60 μg/μL PKA was added, and 100 μL of TE cAMP buffer was added to the blank control group (B). Another 50 μL of 0.5 μ Ci[^3H]cAMP was added to each of the above centrifuge tubes, the mixture was quickly mixed and incubated at 4° C. for more than 2 hours. After incubation, another 100 μL of activated carbon suspension was added to each tube, the mixture was vortex agitated evenly, placed in an ice bath for 1 minute, centrifuged at 5000 rpm for 4 minutes. 200 μL of supernatant after centrifugation in each tube was suck out to a 24 well plate, with an additional 700 μL of scintillator liquid added per well, then the 24 well plate was sealed with adhesive film, placed for 3 hours, then placed on the scintillation instrument for measurement.
# (§2) The inhibitory effect of cAMP was represented by the percentage (% control) of drug inhibition of intracellular cAMP accumulation induced by Forskolin, wherein % control=(cAMP content when treated with Forskolin−cAMP content when Forskolin co-treated with the test drug)/(cAMP content when treated with Forskolin−cAMP content when treated with solvent). The related % control data was represented by mean±S.E.M. The dose-effect relationship of the drug was statistically analyzed using a nonlinear regression model, and the IC50 values of the multi-target cyclopeptide molecule on inhibition of Forskolin induced intracellular cAMP accumulation were calculated using the statistical software GraphPad Prism version 5.0.
# [2] = target: T2, Kappa-opioid receptor (Homo sapiens, UniProt P41145); assay: cAMP functional experiment, Kappa-opioid receptor (forskolin-induced cAMP accumulation); format: cell-based
# T2 construct: expressed in transfected cells; host or cells: HEK293
# T2 sequence (P41145 whole entry): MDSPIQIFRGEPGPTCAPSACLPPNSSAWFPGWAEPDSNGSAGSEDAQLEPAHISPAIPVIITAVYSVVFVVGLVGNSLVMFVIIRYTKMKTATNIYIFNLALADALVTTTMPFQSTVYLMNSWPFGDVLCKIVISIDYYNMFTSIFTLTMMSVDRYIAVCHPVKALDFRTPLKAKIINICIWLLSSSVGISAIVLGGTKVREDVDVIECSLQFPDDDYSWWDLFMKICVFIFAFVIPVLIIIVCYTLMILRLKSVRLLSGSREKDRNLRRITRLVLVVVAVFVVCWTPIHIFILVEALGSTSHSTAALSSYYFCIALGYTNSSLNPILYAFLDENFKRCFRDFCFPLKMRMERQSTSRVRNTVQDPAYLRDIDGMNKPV
# Description: as §1, §2
# [3] = target: T3, Delta-opioid receptor (Homo sapiens, UniProt P41143); assay: cAMP functional experiment, Delta-opioid receptor (forskolin-induced cAMP accumulation); format: cell-based
# T3 construct: expressed in transfected cells; host or cells: HEK293
# T3 sequence (P41143 whole entry): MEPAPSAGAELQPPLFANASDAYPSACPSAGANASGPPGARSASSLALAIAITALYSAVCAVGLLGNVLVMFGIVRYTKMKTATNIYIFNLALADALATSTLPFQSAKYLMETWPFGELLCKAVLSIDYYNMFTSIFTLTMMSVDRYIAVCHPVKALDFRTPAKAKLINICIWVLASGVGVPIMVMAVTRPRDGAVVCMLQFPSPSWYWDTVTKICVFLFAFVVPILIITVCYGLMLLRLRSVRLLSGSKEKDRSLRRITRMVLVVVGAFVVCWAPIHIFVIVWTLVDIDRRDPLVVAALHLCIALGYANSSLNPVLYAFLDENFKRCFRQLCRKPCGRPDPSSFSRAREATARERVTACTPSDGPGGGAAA
# Description: as §1, §2
# [4] = target: T4, NPFF1 receptor (Homo sapiens, UniProt Q9GZQ6); assay: cAMP functional experiment, NPFF1 receptor (forskolin-induced cAMP accumulation); format: cell-based
# T4 construct: expressed in transfected cells; host or cells: HEK293
# T4 sequence (Q9GZQ6 whole entry): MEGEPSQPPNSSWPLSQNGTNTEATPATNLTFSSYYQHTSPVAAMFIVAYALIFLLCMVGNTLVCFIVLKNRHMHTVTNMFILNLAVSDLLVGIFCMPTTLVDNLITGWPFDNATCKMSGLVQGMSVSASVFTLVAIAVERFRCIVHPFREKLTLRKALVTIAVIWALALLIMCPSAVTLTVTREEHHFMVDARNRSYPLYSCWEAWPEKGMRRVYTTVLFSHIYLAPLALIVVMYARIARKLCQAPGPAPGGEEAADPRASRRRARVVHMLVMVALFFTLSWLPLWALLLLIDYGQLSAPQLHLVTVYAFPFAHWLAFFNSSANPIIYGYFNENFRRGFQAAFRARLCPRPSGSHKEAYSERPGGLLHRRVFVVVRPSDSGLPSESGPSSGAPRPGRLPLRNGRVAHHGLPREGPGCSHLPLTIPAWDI
# Description: as §1, §2
# [5] = target: T5, NPFF2 receptor (Homo sapiens, UniProt Q9Y5X5); assay: cAMP functional experiment, NPFF2 receptor (forskolin-induced cAMP accumulation); format: cell-based
# T5 construct: expressed in transfected cells; host or cells: HEK293
# T5 sequence (Q9Y5X5 whole entry): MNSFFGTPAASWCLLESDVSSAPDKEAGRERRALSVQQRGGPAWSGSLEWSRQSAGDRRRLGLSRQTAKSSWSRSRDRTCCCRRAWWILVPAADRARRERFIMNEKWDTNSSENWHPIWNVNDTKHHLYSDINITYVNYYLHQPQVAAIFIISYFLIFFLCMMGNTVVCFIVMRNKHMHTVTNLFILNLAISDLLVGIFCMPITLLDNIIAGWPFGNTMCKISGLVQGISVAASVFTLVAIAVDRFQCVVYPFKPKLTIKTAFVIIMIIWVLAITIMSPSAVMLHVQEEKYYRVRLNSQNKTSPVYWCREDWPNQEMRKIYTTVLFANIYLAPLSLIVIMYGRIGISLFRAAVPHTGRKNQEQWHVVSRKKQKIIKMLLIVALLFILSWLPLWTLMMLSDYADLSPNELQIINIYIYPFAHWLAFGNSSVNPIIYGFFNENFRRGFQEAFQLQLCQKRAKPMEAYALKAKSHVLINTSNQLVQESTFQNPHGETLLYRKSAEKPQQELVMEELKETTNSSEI
# Description: as §1, §2
# [6] = system: Kunming male mice; assay: Photothermal tail flick experiment, subcutaneous injection; format: in vivo; details: photothermal tail flick
# Description: (§3) Two administration methods were used: peripheral subcutaneous administration and oral administration. Subsequently, the analgesic activity of the drug was studied using an acute pain model of photothermal tail flick in mice.
# Subcutaneous administration on the back was chosen for subcutaneous administration (s.c.). A sterile 1 mL syringe was used and the drug with the volume of 0.1 mL/10 g was injected for administration. The back skin was grasped with the right hand, the needle was tilted in, and the drug was injected subcutaneously into the mouse's back. After the needle was inserted, shook it left and right, and observe to confirm that the needle had indeed entered the subcutaneous area to prevent the needle from puncturing the skin and leaking the drug.
# (§4) The photothermal tail flick experiment is based on the experimental method summarized by D'Amour and Smith to optimize the experimental parameters. The experiment selected Kunming male mice with body weigh 21±2 g, and ambient temperature controlled at 22±2° C. The experimental mice were allowed to drink water freely and were moved from the breeding room to the experimental area for adaptation for 30 minutes before starting the experiment. Then the mice were grab with the right hand and the tail hang freely. Then the mice's tail were placed on a radiation light source, 2-3 mm away from the mice tail. The intensity of radiation heat was adjusted to the tail flick time of mice being 3-5 s, which is the basic pain threshold of photothermal tail flick. The irradiation time of the mice tail should not exceed 10 s to prevent scalding of the mice tail, which was the maximum latency for photothermal tail flick. After administration, time points of 10, 20, 30, 45, 60, 90, 120, 180, 240, 300, 360, and 420 minutes were selected to measure the tail flick latency of mice after administration.
# (§5) The analgesic effect of drugs was generally evaluated using the maximum analgesic effect MPE (%), MPE (%)=100×[(pain threshold after administration−basic pain threshold)/(10 seconds−basic pain threshold)]. 50% effective dose (ED50) refers to the corresponding drug dose that causes a 50% effect. ED50 and 95% confidence interval were calculated using MPE (%) and the drug concentration that achieves the maximum analgesic effect MPE (%) by the statistical software GraphPad Prism 5.0. The difference in analgesic effects was statistically analyzed using one-way ANOVA (Dunnett test), *P<0.05, **P<0.01, and ***P<0.001 indicated significance of the difference between the group with only drug injected and the saline group.
# [7] = system: Kunming male mice; assay: Photothermal tail flick experiment, oral administration; format: in vivo; details: tail flick
# Description: as §3
# 1 mL sterile syringe was used for oral administration (p.o.), the pinhead was replaced with a mouse gastric lavage needle, and […] of the drug was orally administered. The skin on the neck and back of the mouse was grasped with the left hand with the abdomen facing upwards. Noted that the mouse's entire body was fixed to vertical, which was beneficial for oral gavage. A gastric lavage needle (No. 12 needle and 1 mL syringe) was held in the right hand and was inserted to the esophagus along the upper jaw which is pressed the tongue tightly from the corner of the mouse's mouth. Gastric lavage fluid can be injected when the needle inserted 2.5 cm. The inserting length of the needle should be determined through practice in advance, as there is a sense of falling into a hole after the needle is inserted. If the injection position was appropriate, it should be very smooth. […] This can cause immediate death of the mouse after gavage.
# as §4, §5
# [8] = morphine, reference method; cited from earlier work
smiles,measurement,setting,value
"CN1C(=O)CNC(=O)[C@H](NC(=O)[C@@H](N)Cc2ccc(O)cc2)CCC(=O)NCCCC[C@@H](C(=O)N2CCC[C@H]2C(=O)N[C@@H](CCC(N)=O)C(=O)N[C@@H](CCCNC(=N)N)C(=O)N[C@@H](Cc2ccccc2)C(N)=O)NC(=O)[C@@H]1Cc1ccccc1 [Compound 7, Tyr-c^[2,5][D-Glu-Gly-NMe-Phe-Lys]-Pro-Gln-Arg-Phe-NH2] (H-Y[dE]G[NMeF]KPQRF-NH2; lactam 2-5)",melting point,,182 to 184 °C
"CN1C(=O)CNC(=O)[C@H](NC(=O)[C@@H](N)Cc2ccc(O)cc2)CNC(=O)C[C@@H](C(=O)N2CCC[C@H]2C(=O)N[C@@H](CCC(N)=O)C(=O)N[C@@H](CCCNC(=N)N)C(=O)N[C@@H](Cc2ccccc2)C(N)=O)NC(=O)[C@@H]1Cc1ccccc1 [Compound 10, Tyr-c^[2,5][D-Dap-Gly-NMe-Phe-Asp]-Pro-Gln-Arg-Phe-NH2] (H-Y[dDap]G[NMeF]DPQRF-NH2; lactam 2-5)",IC50,[1],0.238 µM
same,IC50,[2],0.136 µM
same,IC50,[3],0.374 µM
same,IC50,[4],0.0901 µM
same,IC50,[5],0.349 µM
same,"ED50 value (95% confidence interval), analgesic activity",[6],15.0 (13.6 to 16.5) μg/kg
same,Maximum analgesic time,[7]; oral administration at the maximum analgesic dose,30 min
same,analgesic duration,[7]; oral administration,240 min
"CN1C(=O)CNC(=O)[C@H](NC(=O)[C@@H](N)Cc2ccc(O)cc2)CCCCNC(=O)C[C@@H](C(=O)N2CCC[C@H]2C(=O)NCCC(=O)N[C@@H](CCCNC(=N)N)C(=O)N[C@@H](CC2CCCCC2)C(N)=O)NC(=O)[C@@H]1Cc1ccccc1 [Compound 13, Tyr-c[D-Lys-Gly-NMe-Phe-Asp]-Pro-β-Ala-Arg-Cha-NH2] (H-Y[dK]G[NMeF]DP[βAla]R[Cha]-NH2; lactam 2-5)",melting point,,175 to 177 °C
"CN1C(=O)CNC(=O)[C@H](NC(=O)[C@@H](N)Cc2ccc(O)cc2)CCCCNC(=O)C[C@@H](C(=O)N2CCC[C@H]2C(=O)NC(C)(C)C(=O)N[C@@H](CCCNC(=N)N)C(=O)N[C@@H](CC2CCCCC2)C(N)=O)NC(=O)[C@@H]1Cc1ccccc1 [Compound 14, Tyr-c^[2,5][D-Lys-Gly-NMe-Phe-Asp]-Pro-Aib-Arg-Cha-NH2] (H-Y[dK]G[NMeF]DP[Aib]R[Cha]-NH2; lactam 2-5)",melting point,,196 to 198 °C
CN1CC[C@]23c4c5ccc(O)c4O[C@H]2[C@@H](O)C=C[C@H]3[C@H]1C5 [morphine],analgesic ED50,[8],1.68 mg/kg
